Reference: PMC6433934, “Preclinical Evaluation of Bispecific Adaptor Molecule Controlled Folate Receptor CAR-T Cell Therapy With Special Focus on Pediatric Malignancies” (Frontiers in Oncology, 2019)

Assays:
MDA-MB-231 tumors = assay: EC17 dose finding safety study, tumor-bearing mice; format: in vivo, NSG mice; details: for higher IFNγ production in mouse plasma vs CAR-T cells only: all EC17 regimens
Method: All animal care and use were performed according to NIH guidelines and in compliance with protocols approved by the Purdue University Animal Use and Care Committee. Female 4 to 5-weeks-old NOD/SCID gamma (NSG™) mice (stock number: 005557) were purchased from The Jackson Laboratory (Bar Harbor, ME). Unless specifically indicated, all animals were maintained on a FA-deficient diet (TestDiet, St. Louis, MO) upon arrival and throughout the study. To establish subcutaneous xenografts, MDA-MB-231 and HOS-FRα were implanted in the right flank region at 2.5 × 10^6 and 1 × 10^6 cells per animal, respectively. For intravenous xenografts, THP1-FRβ cells were inoculated at 5 × 10^6 cells per animal. Subcutaneous tumors were measured 2–3 times per week with a caliper and calculated using the ellipsoidal formula (length x width^2)/2. […] All animal doses (CAR-T cells, EC17, sodium fluorescein) were given intravenously.
In a therapeutic setting, EC17 CAM can theoretically be given before or after CAR-T cell injection ([33]). For all intended purposes here, we administered the first dose of EC17 2–3.5 days after CAR-T cells to allow for an observation period of human T cells in tumor-bearing mice. Two batches of unsorted E2-CAR-T cells (23% or 39% EGFRt+, 1:1 CD4/CD8) were used for in vivo studies. On the day of infusion for each experiment (day 0), frozen CAR-T cells were quickly thawed at 37°C, washed 2x with Dulbecco's 1X PBS (pH 7.4) and injected into the tail veil at desired EGFRt+ E2-CAR-T cell doses. In addition, a small aliquot of CAR-T cells was analyzed by flow cytometry for CD4 to CD8 ratio and differentiation status of CAR-T cells. On the first day of EC17 dose, tumor-bearing animals were randomly assigned into groups according to their tumor sizes or the same number of days post intravenous implantation (i.e., THP1-FRβ).
For MDA-MB-231 studies, mice received a high dose (~10 million) of a “clinical facsimile” of E2-CAR-T cells (~39% EGFRt+) with a low differentiation profile. Two days later, we started them with 3 different treatment regimens of EC17 at an average tumor size of ~293 ± 39 mm^3. The EC17 dosing was given once-a-week (SIW) at 500 nmol/kg on Mondays, or as escalating doses of 5, 50, or 100, and 500 or 1,000 nmol/kg on Monday, Thursday, and Monday with a 6 day break in-between cycles. Control mice were left untreated (received CAR-T cells but no EC17). For comparison, a cohort of tumor-free littermates also received the same number of CAR-T cells without or with EC17 SIW at 500 nmol/kg. To study the effect of high dietary folate, two sets of NSG mice were placed on either a FA-replete diet (4 mg/kg, Envigo, Indianapolis, IN) or a FA-deficient diet (TestDiet, St. Louis, MO) upon arrival. On day 0, both sets of the mice received ~10 million of the same “clinical facsimile” CAR-T cells followed by no EC17 or EC17 SIW at 500 nmol/kg starting on day 3. On the first day of EC17 administration, MDA-MB-231 tumors size averaged around ~549 ± 184 mm^3 (280–918 mm^3) in FA-replete mice, and ~559 ± 165 mm^3 (356–961 mm^3) in FA-deficient mice.
Depending on the CAR-T cell dose and how EC17 is administered, tumor-bearing mice receiving FITC-specific CAR-T cells can experience severe CRS and varying degrees of body weight loss ([27], [33], [34]). […] On the days immediately following each EC17 dose, animals were scored and rescue agents such as sodium fluorescein, folic acid and leucovorin were used to mitigate CRS toxicity ([33]). […]

OV90 = assay: EC17 dose response, co-culture with E2-CAR-T cells, LDH specific lysis; format: cell-based; details: OV90, E/T 1:1, 24 h co-culture
Text: To investigate EC17 CAM action in vitro, pure EGFRt-sorted CD4 and CD8 CAR-T cells were admixed in a 1:1 ratio and matching mock-transduced T cells were included per experimental design. Other than FR+/- isogenic pairs of AML and osteosarcoma cell lines, we added KB, MDA-MB-231 and OV90 to represent different histological tumor types and FR expression levels. All FR+ target cell lines were subjected to a direct ^3H-FA binding assay to quantitate the number of FR molecules bound/cell ([38]). Prior to co-culture experiments, cryopreserved CAR-T cells were allowed to recover for 2–3 days in T cell culture medium. All effector and target cells were pre-washed with FFRPMI to remove any exogenous FA that could compete against EC17. […]
For an EC17 dose response study, FR+ cancer cell lines (KB, MDA-MB-231, HOS-FRα, THP1-FRβ, OV90) were co-cultured with EGFRt-sorted E2-CAR-T cells at an effector-to-target (E/T) ratio of 1:1 in the presence of EC17 ranging from 0.1 pM to 100 μM in 10-fold increments. After 24 h of co-culture, supernatants were harvested to determine target cell killing by Promega's CytoTox 96® LDH assay kit and expressed as specific lysis (%) normalized to basal levels in the absence of EC17. […] The kinetics of target cell killing (i.e., % specific lysis) were quantified after 16 and 48 h of co-culture and normalized to basal levels in the absence of EC17 at defined E/T ratios. […]

Nc1nc2ncc(CNc3ccc(C(=O)NC(CCC(=O)NCCNC(=S)Nc4ccc(-c5c6ccc(=O)cc-6oc6cc(O)ccc56)c(C(=O)O)c4)C(=O)O)cc3)nc2c(=O)[nH]1 (stereo not shown) [EC17, FA-(γ)-ethylenediamine-FITC]
cures (MDA-MB-231 tumors; EC17-treated cohorts (SIW 500, 5/50/500, 5/100/1000 nmol/kg), ~10 million E2-CAR-T cells): 100% | higher IFNγ production in mouse plasma vs CAR-T cells only (MDA-MB-231 tumors; day 11, ~20 h after previous EC17 dose, ~10 million E2-CAR-T cells): ~ 30 x | higher IFNγ production in mouse plasma vs CAR-T cells only (MDA-MB-231 tumors; day 12, ~42 h after previous EC17 dose, ~10 million E2-CAR-T cells): ~ 10 x | persistence of CAR-T cells in mouse blood (MDA-MB-231 tumors; tumor-bearing animals, ~10 million E2-CAR-T cells plus EC17, last measurement): up to 54 days | CRS grade (MDA-MB-231 tumors; tumor-bearing, ~10 million E2-CAR-T cells, continued EC17 dosing independent of the regimen, 0–5 scale): 2-3 | EC50 (OV90; Homo sapiens, OV-90, curve fitted up to 100 nM): 0.418 nM | Max. lysis (OV90): 15%
